Values quoted from earlier work as cited in patent US10653634B1, “Polymeric nanoparticulate formulation to enhance the oral bioavailability of dapoxetine” (King Abdulaziz University, priority 2019, dated 2020).
Values after ≈ are worked out from the molar mass of the structure shown.

Assays:
[1] = not given; remark: listed apart in the source

pKa: 8.6 | aqueous solubility (protonated DPX): 68 mg/mL (≈ 223 mM) | bioavailability after oral administration (mean) [1]: 42% | bioavailability after oral administration (variability) [1]: 15-76% | time to peak plasma concentration after oral administration [1]: 60 to 80 min
Compound: CN(C)[C@@H](CCOc1cccc2ccccc12)c1ccccc1 [DPX, (1S)—N,N-dimethyl-3-naphthalen-1-yloxy-1-phenylpropan-1-amine]
